Assay results taken from PubChem BioAssay AID1963838 (Molecular Pharmacology Branch, DTP, NCI, 2024).

System: 855422-203-R-J1-PDC complex spheroid viability
Assay: Anticancer human tumor 855422-203-R-J1-PDC patient-derived bladder carcinoma cell line growth inhibition [POLQ]
Settings: for IC50: curve of first compound; for viability, T/C: stronger effect = lower value; active = viability on the fitted dose curve at most 10% of control; inactive = the rest
Method in brief: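 Growth inhibition in 3D: complex spheroids (tumor PDC, HUVEC, MSC) treated with POLQ inhibitor combinations; where Cmax unknown, highest tested concentration 10 microM, except SN-38 at 1 microM.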

[1] = second compound 0.0316 µM, first compound 0.00316 µM
[2] = second compound 0.0316 µM, first compound 0.01 µM
[3] = second compound 0.0316 µM, first compound 0.0316 µM
[4] = second compound 0.0316 µM, first compound 0.1 µM
[5] = second compound 0.0316 µM, first compound 0.316 µM
[6] = second compound 0.0316 µM, first compound 1 µM
[7] = second compound 0.1 µM, first compound 0.00316 µM
[8] = second compound 0.1 µM, first compound 0.01 µM
[9] = second compound 0.1 µM, first compound 0.0316 µM
[10] = second compound 0.1 µM, first compound 0.1 µM
[11] = second compound 0.1 µM, first compound 0.316 µM
[12] = second compound 0.1 µM, first compound 1 µM
[13] = second compound 0.316 µM, first compound 0.00316 µM
[14] = second compound 0.316 µM, first compound 0.01 µM
[15] = second compound 0.316 µM, first compound 0.0316 µM
[16] = second compound 0.316 µM, first compound 0.1 µM
[17] = second compound 0.316 µM, first compound 0.316 µM
[18] = second compound 0.316 µM, first compound 1 µM
[19] = second compound 1 µM, first compound 0.00316 µM
[20] = second compound 1 µM, first compound 0.01 µM
[21] = second compound 1 µM, first compound 0.0316 µM
[22] = second compound 1 µM, first compound 0.1 µM
[23] = second compound 1 µM, first compound 0.316 µM
[24] = second compound 1 µM, first compound 1 µM
[25] = second compound 3.16 µM, first compound 0.00316 µM
[26] = second compound 3.16 µM, first compound 0.01 µM
[27] = second compound 3.16 µM, first compound 0.0316 µM
[28] = second compound 3.16 µM, first compound 0.1 µM
[29] = second compound 3.16 µM, first compound 0.316 µM
[30] = second compound 3.16 µM, first compound 1 µM
[31] = second compound 10 µM, first compound 0.00316 µM
[32] = second compound 10 µM, first compound 0.01 µM
[33] = second compound 10 µM, first compound 0.0316 µM
[34] = second compound 10 µM, first compound 0.1 µM
[35] = second compound 10 µM, first compound 0.316 µM
[36] = second compound 10 µM, first compound 1 µM
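Also: spheroids exposed to compounds for seven days before readout.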

C=CCn1c(=O)c2cnc(Nc3ccc(N4CCN(C)CC4)cc3)nc2n1-c1cccc(C(C)(C)O)n1 + Nc1ccc(C#CCN(C(=O)Cc2ncc(C(F)(F)F)cc2C(F)(F)F)c2ccc(F)cc2)nn1
inactive: viability, T/C [1] 96.4% | viability, T/C [2] 152% | viability, T/C [3] 113% | viability, T/C [4] 85.5% | viability, T/C [5] 113% | viability, T/C [6] 204% | viability, T/C [7] 97% | viability, T/C [8] 127% | viability, T/C [9] 110% | viability, T/C [10] 101% | viability, T/C [11] 114% | viability, T/C [12] 160% | viability, T/C [13] 110% | viability, T/C [14] 134% | viability, T/C [15] 102% | viability, T/C [16] 107% | viability, T/C [17] 110% | viability, T/C [18] 219% | viability, T/C [19] 94.4% | viability, T/C [20] 144% | viability, T/C [21] 103% | viability, T/C [22] 112% | viability, T/C [23] 118% | viability, T/C [24] 193% | viability, T/C [25] 102% | viability, T/C [26] 112% | viability, T/C [27] 107% | viability, T/C [28] 115% | viability, T/C [29] 126% | viability, T/C [30] 198% | viability, T/C [31] 104% | viability, T/C [32] 101% | viability, T/C [33] 96.9% | viability, T/C [34] 122% | viability, T/C [35] 109% | viability, T/C [36] 161%
> 1 µM: IC50 (second compound 0.0316 µM) | IC50 (second compound 0.1 µM) | IC50 (second compound 0.316 µM) | IC50 (second compound 1 µM) | IC50 (second compound 3.16 µM) | IC50 (second compound 10 µM)

CCc1c2c(nc3ccc(O)cc13)-c1cc3c(c(=O)n1C2)COC(=O)[C@]3(O)CC + Nc1ccc(C#CCN(C(=O)Cc2ncc(C(F)(F)F)cc2C(F)(F)F)c2ccc(F)cc2)nn1
0.00579 µM: IC50 (second compound 3.16 µM)
0.00682 µM: IC50 (second compound 0.1 µM)
active: viability, T/C [4] 5.91% | viability, T/C [5] 4.85% | viability, T/C [6] 2.42% | viability, T/C [9] 10.2% | viability, T/C [10] 7.32% | viability, T/C [11] 4.65% | viability, T/C [12] 2.23% | viability, T/C [16] 6.7% | viability, T/C [17] 4.41% | viability, T/C [18] 2.32% | viability, T/C [21] 8.52% | viability, T/C [22] 7.09% | viability, T/C [23] 4.98% | viability, T/C [24] 3.55% | viability, T/C [28] 7.49% | viability, T/C [29] 5.5% | viability, T/C [30] 2.82% | viability, T/C [34] 8.16% | viability, T/C [35] 5.98% | viability, T/C [36] 2.43%
0.00742 µM: IC50 (second compound 0.316 µM)
0.00631 µM: IC50 (second compound 10 µM)
0.00728 µM: IC50 (second compound 0.0316 µM)
inactive: viability, T/C [1] 96.9% | viability, T/C [2] 31.4% | viability, T/C [3] 12.5% | viability, T/C [7] 100% | viability, T/C [8] 24.3% | viability, T/C [13] 96.2% | viability, T/C [14] 33.6% | viability, T/C [15] 11.4% | viability, T/C [19] 94.7% | viability, T/C [20] 34.5% | viability, T/C [25] 71.9% | viability, T/C [26] 29.9% | viability, T/C [27] 12.9% | viability, T/C [31] 86.3% | viability, T/C [32] 24.2% | viability, T/C [33] 14.3%
0.00743 µM: IC50 (second compound 1 µM)

CNCc1ccc(-c2[nH]c3cc(F)cc4c3c2CCNC4=O)cc1 + Nc1ccc(C#CCN(C(=O)Cc2ncc(C(F)(F)F)cc2C(F)(F)F)c2ccc(F)cc2)nn1
> 10 µM: IC50 (second compound 0.0316 µM) | IC50 (second compound 0.1 µM) | IC50 (second compound 0.316 µM) | IC50 (second compound 1 µM) | IC50 (second compound 3.16 µM) | IC50 (second compound 10 µM)
inactive: viability, T/C [3] 94.5% | viability, T/C [4] 131% | viability, T/C [5] 102% | viability, T/C [6] 102% | viability, T/C (second compound 0.0316 µM, first compound 3.16 µM) 106% | viability, T/C (second compound 0.0316 µM, first compound 10 µM) 116% | viability, T/C [9] 97.8% | viability, T/C [10] 154% | viability, T/C [11] 112% | viability, T/C [12] 86% | viability, T/C (second compound 0.1 µM, first compound 3.16 µM) 99.2% | viability, T/C (second compound 0.1 µM, first compound 10 µM) 115% | viability, T/C [15] 100% | viability, T/C [16] 121% | viability, T/C [17] 108% | viability, T/C [18] 91.4% | viability, T/C (second compound 0.316 µM, first compound 3.16 µM) 100% | viability, T/C (second compound 0.316 µM, first compound 10 µM) 119% | viability, T/C [21] 90.9% | viability, T/C [22] 115% | viability, T/C [23] 91.4% | viability, T/C [24] 104% | viability, T/C (second compound 1 µM, first compound 3.16 µM) 118% | viability, T/C (second compound 1 µM, first compound 10 µM) 112% | viability, T/C [27] 94.9% | viability, T/C [28] 119% | viability, T/C [29] 101% | viability, T/C [30] 97.3% | viability, T/C (second compound 3.16 µM, first compound 3.16 µM) 101% | viability, T/C (second compound 3.16 µM, first compound 10 µM) 104% | viability, T/C [33] 98.3% | viability, T/C [34] 102% | viability, T/C [35] 107% | viability, T/C [36] 100% | viability, T/C (second compound 10 µM, first compound 3.16 µM) 110% | viability, T/C (second compound 10 µM, first compound 10 µM) 97.8%

COc1cccc(OCCCN)c1-c1cc(Nc2cnc(C#N)cn2)n[nH]1 + Nc1ccc(C#CCN(C(=O)Cc2ncc(C(F)(F)F)cc2C(F)(F)F)c2ccc(F)cc2)nn1
0.0277 µM: IC50 (second compound 0.0316 µM)
0.024 µM: IC50 (second compound 10 µM)
0.0241 µM: IC50 (second compound 3.16 µM)
inactive: viability, T/C [1] 111% | viability, T/C [2] 197% | viability, T/C [3] 36.6% | viability, T/C [7] 106% | viability, T/C [8] 196% | viability, T/C [9] 50.3% | viability, T/C [13] 113% | viability, T/C [14] 176% | viability, T/C [15] 49.8% | viability, T/C [19] 105% | viability, T/C [20] 148% | viability, T/C [21] 31.3% | viability, T/C [25] 107% | viability, T/C [26] 178% | viability, T/C [27] 21.6% | viability, T/C [31] 100% | viability, T/C [32] 161% | viability, T/C [33] 24.6%
0.0315 µM: IC50 (second compound 0.316 µM)
0.0319 µM: IC50 (second compound 0.1 µM)
0.0252 µM: IC50 (second compound 1 µM)
active: viability, T/C [4] 11.9% | viability, T/C [5] 7.2% | viability, T/C [6] 6.13% | viability, T/C [10] 10.7% | viability, T/C [11] 6.14% | viability, T/C [12] 5.3% | viability, T/C [16] 11.1% | viability, T/C [17] 7.07% | viability, T/C [18] 6.94% | viability, T/C [22] 9.99% | viability, T/C [23] 7.86% | viability, T/C [24] 7.5% | viability, T/C [28] 15.9% | viability, T/C [29] 7.71% | viability, T/C [30] 6.25% | viability, T/C [34] 8% | viability, T/C [35] 9.72% | viability, T/C [36] 7.4%
